Here are results for 8 compounds from patent publication US4079140A, “Benzothienyl aminoethyl ketones and their application in therapeutics” (Innothera, priority 1975, dated 1978).

One data set deals with rat's isolated duodenum. The data set is described as follows: Spasmolytic activity on isolated duodenum, barium chloride contraction (Magnus). The following applies: for IC50: Rattus norvegicus; for relative activity, ratio of ED 50 (papaverine hydrochloride = R): 2 = twice the activity of papaverine hydrochloride, head is drawing 18. How it is done: Spasmolytic activity was studied on a rat's isolated duodenum maintained in a survival medium of an aerated Tyrode solution heated to 38° C, according to the technique of Magnus (Magnus R. -- Archiv. ges. Physiol., 1905, 180, 1-71).
The contracting agent was barium chloride, the reference antagonist agent being papaverine hydrochloride (R). The average activity of compounds of formula I (X) compared to that of the reference agent were expressed by calculating the ratio of 50 efficient doses (ED 50) determined graphically on logarithmic paper: [formula]
For example: a substance having a relative activity expressed by the figure 2 has an activity equal to twice that of papaverine hydrochloride.

The test system of data set [1] is phenylparaquinone (P.P.Q.) painful syndrome in mouse. Nature of the data set: Analgesic and anti-inflammatory activity (P.P.Q. painful syndrome). The format is in vivo. The following applies: for a (X): percentage activity, P.P.Q.: 50 mg/kg digestively; for ratio of activity of X in relation to R, P.P.Q.: X 50 mg/kg vs Glafenine 25 mg/kg, 0.5 = half the activity of reference, head is drawing 19. How it is done:
The intraperitoneal injection of phenylparaquinone (P.P.Q.) to a mouse causes the appearance of a painful syndrome appearing within 5 minutes of the injection and disappearing after about 30 minutes (Siegmund E. A., Cadmus A., Lu G., J. Pharmacol. Exp. Therap. 1957, 119, 453).
This painful syndrome manifests itself in the animal by a series of characteristic crises more or less close together and fleeting, during which can be noted a twisting or stretching of the body, a hollowing of the sides and a stretching of the hind legs.
It is then possible to note the number of crises in a given interval of time.
The preventive administration of analgesic or anti-inflammatory substances prevents the appearance of the crises and reduces the frequence thereof.
The reference substance used in the tests (R) is the ester of N-(7-chloro-4-quinolyl) anthrilic acid and 2,3-dihydroxy n. propanol (known under the trademark "Glafenine").
It is administered orally as a dose of 25 mg/kg.
The compounds of formula I (X) were administered digestively as a dose of 50 mg/kg.
The interval of time (t) chosen for calculating the analgesic activity was between 10 and 15 minutes after injection of P.P.Q. which is the period of maximum frequency of the crises. This activity was expressed in the following manner;
n: the number of crises observed in controle mice;
n': the number of crises observed in mice previously treated with the reference substance (R);
n": the number of crises observed in mice having received substance (X)
The percentage activity of R is equal to: [formula] The percentage activity of X is equal to: [formula] The activity of X in relation to R is estimated by the ratio: [formula]

The next data set concerns human blood-plaques. The data set is described as follows: Blood-plaque aggregation inhibition in B.P.R.P. (D.P.A., adrenaline, collagene). As to conditions: for a(X): blood-plaque aggregation inhibiting activity, D.P.A. / a(X): blood-plaque aggregation inhibiting activity, Adrenaline: compound 2.5 × 10^-5 g/ml; for ratio of activities a(X)/a(R), D.P.A. / ratio of activities a(X)/a(R), Adrenaline: X 2.5 × 10^-5 g/ml vs Dipyridamole 5 × 10^-4 g/ml; for ratio of activities a(X)/a(R), D.P.A.: head is drawing 13; for ratio of activities a(X)/a(R), Adrenaline: head is drawing 15; for a(X): blood-plaque aggregation inhibiting activity, Collagene: compound 2 × 10^-5 g/ml; for ratio of activities a(X)/a(R), Collagene: X 2 × 10^-5 g/ml vs Dipyridamole 2 × 10^-4 g/ml, head is drawing 16.

Data set [2] is described as follows: Acute oral toxicity (LD 50), Miller and Tainter. As to conditions: mouse, in vivo; for LD50 at 168 h: mice deprived of food 18 hours, oral (esophageal probe), mortality followed seven days, read-out: LD 50 (50% lethal dose). The method, then:
Acute toxicity of compounds of formula (I) was measured orally (esophageal probe) on mice deprived of food 18 hours before the beginning of the test. The products were suspended in a solution of dilute carboxymethyl cellulose. Calculation of the 50% lethal dose was carried out according to the method of Miller and Tainter (Miller L. C., Tainter M. L., proc. Soc. Exptl. Biol. Med. 1944, 57, 261-264).
The mortality rate was checked for seven days following the treatment.

For data set [3], the system named is isolated heart of a guinea-pig. Nature of the data set: Vasodilatatory activity, coronary flow of isolated perfused heart. As to conditions: for activation at 10 µg/mL: Cavia porcellus, compound 1 × 10^-5 g/ml, Locke solution, 37° C, at climax of activity, read-out: P (X): percentage of coronary flow increase; for ratio P (X)/P (R): X and Dipyridamole both 1 × 10^-5 g/ml, head is drawing 21. How it is done: The percentage of flow increase (P) is calculated at the climax of the activity of X or R.

Where [4] appears, read: barium chloride contraction, Tyrode solution, 38° C, read-out: ED 50 (X), spasmolytic activity.
[5] abbreviates: crises 10 to 15 minutes after P.P.Q.

≈ marks a conversion by molar mass, not a printed value. Where “and” joins values, the source holds several entries; their conditions need not be identical. Equal entries are not always repeated. Structures can show the parent of a compound that is named as a salt. Where two headings read alike, the source gives them in different places. Where only a bound is given, the exact number is not on record here.

As for `COc1ccc(Cc2nccc3cc(OC)c(OC)cc23)cc1OC` [papaverine hydrochloride, reference compound], the IC50 with rat's isolated duodenum (read-out: ED 50 (R), spasmolytic activity of reference, barium chloride contraction, Tyrode solution, 38° C, tested beside the compound of the same line) was determined as 4.25 mg/L.

Consider `O=C(CCN1CCCCC1)c1cc2ccccc2s1` [Compound 4], for which the “relative activity, ratio of ED 50 (papaverine hydrochloride = R)” value in the data set with rat's isolated duodenum came out at 1.69. In the data set with rat's isolated duodenum (setting [4]), the IC50 stood at 3.1 mg/L (≈ 11.3 µM). In addition, the “a (X): percentage activity, P.P.Q.” value in data set [1] (setting [5]) was found to be 25%. In data set [1], the “ratio of activity of X in relation to R, P.P.Q.” value (shortened to “ratio of activity of X … P.P.Q.”) came out at 0.33. Besides, the “a(X): blood-plaque aggregation inhibiting activity, D.P.A.” value in the data set on human blood-plaques (D.P.A.-induced) is recorded as 63%. Besides, in the data set on human blood-plaques, the “ratio of activities a(X)/a(R), D.P.A.” value is recorded as 1.2; the “ratio of activities a(X)/a(R), Adrenaline” value (“ratio … Adrenaline” below) was found to be 1.1; the “ratio of activities a(X)/a(R), Collagene” value came out at 2.2. The “a(X): blood-plaque aggregation inhibiting activity, Adrenaline” value with human blood-plaques (adrenaline-induced) was 89%. Moreover, the “a(X): blood-plaque aggregation inhibiting activity, Collagene” value in the data set on human blood-plaques (collagene-induced) came out at 91%. For the same compound, the LD50 at 168 h in data set [2] was greater than 1100 mg/kg.

Consider `OCCN(CCO)c1nc(N2CCCCC2)c2nc(N(CCO)CCO)nc(N3CCCCC3)c2n1` [Dipyridamole, reference compound], for which the “a(R): blood-plaque aggregation inhibiting activity of reference, D.P.A.” value in the data set with human blood-plaques (D.P.A.-induced, reference 5 × 10^-4 g/ml, tested beside the compound of the same line) is 72% and 53%. The “a(R): blood-plaque aggregation inhibiting activity of reference, Adrenaline” value in the data set with human blood-plaques (adrenaline-induced, reference 5 × 10^-4 g/ml, tested beside the compound of the same line) is 96% and 91% and 90% and 80%. The “a(R): blood-plaque aggregation inhibiting activity of reference, Collagene” value with human blood-plaques (collagene-induced, reference 2 × 10^-4 g/ml, tested beside the compound of the same line) was 36% and 42% and 67%. The LD50 in data set [2] (po, reference product of the aggregation test, source of value not given) was 2150 mg/kg.

Consider `C=CCN(CC=C)CCC(=O)c1cc2ccccc2s1` [Compound 3], for which the “a (X): percentage activity, P.P.Q.” value in data set [1] (setting [5]) came out at 58%. For the same compound, the “ratio of activity of X … P.P.Q.” value in data set [1] was 0.75. Also, in the data set with human blood-plaques (adrenaline-induced), the “a(X): blood-plaque aggregation inhibiting activity, Adrenaline” value is 64%. Also, in the data set with human blood-plaques, the “ratio … Adrenaline” value is reported as 7 × 10^-1 and the “ratio of activities a(X)/a(R), Collagene” value is on record as 2.5 × 10^-1. Moreover, in the data set on human blood-plaques (collagene-induced), the “a(X): blood-plaque aggregation inhibiting activity, Collagene” value turned out to be 17%. Further, the LD50 at 168 h in data set [2] was 1000 mg/kg.

Consider `O=C(OCC(O)CO)c1ccccc1Nc1ccnc2cc(Cl)ccc12` (stereo not shown) [Glafenine, ester of N-(7-chloro-4-quinolyl) anthrilic acid and 2,3-dihydroxy n. propanol, reference compound], for which, in data set [1] (25 mg/kg orally, crises 10 to 15 minutes after P.P.Q., tested beside the compound of the same line), the “a (R): percentage activity of reference, P.P.Q.” value was 71% and 77% and 75%.

For the compound `O=C(CCN1CCOCC1)c1cc2ccccc2s1` [Compound 5], in data set [1] (setting [5]), the “a (X): percentage activity, P.P.Q.” value is recorded as 54%. In addition, in data set [1], the “ratio of activity of X … P.P.Q.” value worked out at 0.76. Moreover, in the data set with human blood-plaques (adrenaline-induced), the “a(X): blood-plaque aggregation inhibiting activity, Adrenaline” value is recorded as 44%. Also, in the data set on human blood-plaques, the “ratio … Adrenaline” value is reported as 4.6 × 10^-1 and the “ratio of activities a(X)/a(R), Collagene” value stood at 1.25. In addition, the “a(X): blood-plaque aggregation inhibiting activity, Collagene” value in the data set with human blood-plaques (collagene-induced) was 45%. Besides, in data set [2], the LD50 at 168 h was greater than 1100 mg/kg.

For the compound `CN(C)CCC(=O)c1cc2ccccc2s1` [Compound 2], the “relative activity, ratio of ED 50 (papaverine hydrochloride = R)” value in the data set with rat's isolated duodenum is 2.64. Also, the IC50 in the data set with rat's isolated duodenum (setting [4]) was 1.6 mg/L (≈ 6.86 µM). In data set [1] (setting [5]), the “a (X): percentage activity, P.P.Q.” value is listed as 36%. For the same compound, in data set [1], the “ratio of activity of X … P.P.Q.” value was determined as 0.51. In the data set on human blood-plaques, the “ratio of activities a(X)/a(R), D.P.A.” value turned out to be 1.4; the “ratio … Adrenaline” value is recorded as 1; the “ratio of activities a(X)/a(R), Collagene” value is listed as 1.75. In addition, the “a(X): blood-plaque aggregation inhibiting activity, Adrenaline” value in the data set on human blood-plaques (adrenaline-induced) is on record as 98%. The “a(X): blood-plaque aggregation inhibiting activity, Collagene” value in the data set with human blood-plaques (collagene-induced) is 74%. For the same compound, in data set [3], the activation at 10 µg/mL worked out at 64% and the “ratio P (X)/P (R)” value worked out at 0.4. In data set [2], the LD50 at 168 h is 960 mg/kg.

`O=C(CCN1CCCCCC1)c1cc2ccccc2s1` [Compound 1, 1-(benzothien-2'yl) 3-N-perhydroazepino propanone oxalate]: the “a(X): blood-plaque aggregation inhibiting activity, D.P.A.” value in the data set on human blood-plaques (D.P.A.-induced) worked out at 54%. Further, in the data set on human blood-plaques, the “ratio of activities a(X)/a(R), D.P.A.” value was 7.5 × 10^-1; the “ratio … Adrenaline” value is recorded as 6 × 10^-2; the “ratio of activities a(X)/a(R), Collagene” value amounted to 2.5. Moreover, the “a(X): blood-plaque aggregation inhibiting activity, Adrenaline” value in the data set with human blood-plaques (adrenaline-induced) was found to be 6%. Also, the “a(X): blood-plaque aggregation inhibiting activity, Collagene” value in the data set on human blood-plaques (collagene-induced) is given as 91%. In addition, in data set [3], the activation at 10 µg/mL turned out to be 66% and the “ratio P (X)/P (R)” value was determined as 0.87. Moreover, the LD50 at 168 h in data set [2] came out at 1200 mg/kg.
